Data from patent US8257931B2 (President and Fellows of Harvard College, priority 2005, dated 2012).
Where “and” joins values, the source holds several entries; their conditions need not be identical. Identical values can stand only once. Like-named read-outs stand apart in the source and are kept apart here.

How the values were obtained:
eIF4E = eIF4E (Mus musculus, UniProt P63073); experiment: FP assay competing with fluorogenic eIF4G-derived peptide (KRYDREFLLGF); format: binding; settings: relative to hit compound 1
Protocol: The values indicate the average concentration needed to inhibit 50% of cell proliferation. […] A dual luciferase reporter mRNA was translated for 90 minutes at 30° C. in RedNova reticulocyte lysate (Novagen) in the presence of increasing concentrations of the compound. […] (purple) activity was measured and normalized against an untreated control reaction. The m^7GDP and emetine were used as the positive and negative controls, respectively.
Displacement of Nα-fluorescein tagged eIF4G-derived peptide by a competing ligand causes a large decrease in fluorescence polarization. The non-tagged version of the same eIF4G-derived peptide and DMSO were used as positive and negative control, respectively.

A549 and HT29 cell lines = experiment: Alamar Blue growth inhibition, statements covering both A549 and HT29; format: cell-based, human; settings: for GI50: Homo sapiens
Protocol: Adherent human solid tumor cells were plated and maintained for 3 days in the presence of increasing concentration of the compounds, and cell proliferation was measured by alamar blue assay, where 10% of commercially available solution is added to the cell medium and measure fluorescence in 96-well plates at wavelength of 530 nm excitation and 590 nm emission. The data calculations were carried out as previously described.
Compounds were further tested for cell growth inhibition in a human lung cancer cell line (A549) and conlon cancer cell line (HT29). The Alamar Blue assay, which specifically measures the inhibition of cell proliferation, was used to assess the GI50's of the compounds.

A549 lung cancer cells = experiment: A549 proliferation, sulforhodamine B (SRB) assay; format: cell-based, human; settings: sulforhodamine B assay, triplicate
Protocol: FIG. 28 is a graph showing the results of a cell proliferation assay. A549 cells, which are human lung cancer cells, are grown in plates for five days in medium containing 5% FCS and compound. The number of cells is quantified by staining with sulforhodamine B.

eIF4E/eIF4G interaction = molecular target: T1, eIF4E/eIF4G interaction (Mus musculus, UniProt P63073); experiment: Fluorescence polarization assay: binding of fluorescein-labeled eIF4G peptide to eIF4E; design: species or system murine; settings: for IC50: triplicate, SD<±10%, read-out: IC50 (μM) (4E/4G FP)
T1 construct: made in house; host or cells: E. coli
Protocol: We adapted this assay to a microwell plate format and used it to screen the 16,000 compound Chembridge DiverSet E library. […] For screening and subsequent peptide binding assays measurements of fluorescence polarization were made using an LJL Analyst plate reader. For the screening assay a solution containing approximately 5 μM meIF4E, 60 nM labeled peptide, 0.05% bovine γ-globulin, and 2 mM DTT in a buffer composed of 50 mM sodium phosphate and 50 mM potassium chloride at pH 6.5 was used. […] The curve fitting for estimation of binding constants used equations derived by Roehrl et al.^22 Measurements of fluorescence polarization and anisotropy were made in black 384-well plates (Corning) using an Analyst plate reader (LJL Biosystems) Compounds were transferred to plates during the screening using a custom-built Seiko pin transfer robot at the Institute for Chemistry and Cell Biology (ICCB) at Harvard Medical School.
A fluorescence polarization (FP) assay was developed to measure binding of a peptide containing the conserved eIF4E-binding motif to eIF4E.
The assay was adapted to a microwell plate format and used to screen a number of libraries comprised of small molecule libraries for potential eIF4E/eIF4G interaction inhibitors.

[1] = HT29 and A549, both, read-out: GI50 in both cell lines
[2] = Homo sapiens, A549, Table 1 of b280
[3] = Homo sapiens, A549, Table 1 of b347
[4] = HT29 or A549, at least one, read-out: GI50 in at least one cell line

Sequence of eIF4E (P63073 whole entry): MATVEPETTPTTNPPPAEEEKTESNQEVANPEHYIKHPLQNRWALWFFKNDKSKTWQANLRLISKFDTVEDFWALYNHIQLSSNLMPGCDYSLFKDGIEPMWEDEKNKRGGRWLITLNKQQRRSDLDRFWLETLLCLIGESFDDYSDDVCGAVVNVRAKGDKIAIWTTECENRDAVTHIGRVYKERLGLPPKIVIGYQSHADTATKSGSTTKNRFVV
T1 sequence (P63073 whole entry): as above

SMILES	GI50 (A549 lung cancer cells; [2]) [µM]	IC50 (eIF4E/eIF4G interaction; Table 1 of b280) [µM]	GI50 (A549 lung cancer cells; [3]) [µM]	IC50 (eIF4E/eIF4G interaction; Table 1 of b347)	also measured
O=C(O)C(Cc1ccccc1[N+](=O)[O-])=NNc1nc(-c2ccc(N3CCOCC3)cc2)cs1 [4h, 2-{[4-(4-Morpholin-4-yl-phenyl)-thiazol-2-yl]-hydrazono}-3-(2-nitro-phenyl)-propionic acid]					binding affinity / potency in FP assay compared with hit compound 1 (eIF4E): significantly less active; GI50 (A549 and HT29 cell lines; [1]): > 24 µM
O=C(O)/C(Cc1ccccc1[N+](=O)[O-])=N/Nc1nc(-c2ccc3ccccc3c2)cs1	6	215			
O=C(O)/C(Cc1ccccc1)=N/Nc1ccc(-c2ccccc2)nn1 [E-17, 3-Phenyl-2-[(6-phenyl-pyridazin-3-yl)-hydrazono]-propionic acid]			7.5	> 600 µM	
O=C(O)C(Cc1ccccc1[N+](=O)[O-])=NNc1nc(-c2ccccc2)cs1 [4a]					binding affinity / potency in FP assay compared with hit compound 1 (eIF4E): dramatic decrease; growth inhibition of both cell lines compared with hit compound 1 (A549 and HT29 cell lines; HT29 and A549): dramatic decrease
O=C(O)C(Cc1ccccc1)=NNc1nnc(-c2ccccc2)s1 [E-16, 3-Phenyl-2-[(5-phenyl-[1,3,4]thiadiazol-2-yl)-hydrazono]-propionic acid]			9	> 600 µM	
O=C(O)/C(Cc1ccccc1[N+](=O)[O-])=N/Nc1nc(-c2ccc(N3CCCC3)cc2)cs1	> 20	> 600			
O=C(O)C(Cc1ccccc1[N+](=O)[O-])=NNc1nc(-c2ccc3ccccc3c2)cs1 [4c, 2-[(4-Naphthalen-2-yl-thiazol-2-yl)-hydrazono]-3-(2-nitro-phenyl)-propionic acid]					GI50 (A549 and HT29 cell lines; [4]): < 10 µM
O=C(O)/C(Cc1ccccc1)=N/NC(=S)NCc1ccccc1 [compound 8]	> 10	550	> 10	550 µM	
O=C(O)C(Cc1ccccc1[N+](=O)[O-])=NNc1nc(-c2ccc3c(c2)OCCO3)cs1 [4d, 2-{[4-(2,3-Dihydro-benzo[1,4]dioxin-6-yl)-thiazol-2-yl]-hydrazono}-3-(2-nitro-phenyl)-propionic acid]					binding affinity / potency in FP assay compared with hit compound 1 (eIF4E): more than 2 fold; GI50 (A549 and HT29 cell lines; [4]): < 10 µM
O=C(O)C(Cc1ccccc1[N+](=O)[O-])=NNc1nc(-c2ccc(-c3ccccc3)cc2)cs1 [4f, 2-[(4-Biphenyl-4-yl-thiazol-2-yl)-hydrazono]-3-(2-nitro-phenyl)-propionic acid]					GI50 (A549 and HT29 cell lines; [4]): < 10 µM
O=C(O)C(Cc1ccccc1[N+](=O)[O-])=NNc1nc(-c2ccc(N=Nc3ccccc3)cc2)cs1 [4j]					binding affinity / potency in FP assay compared with hit compound 1 (eIF4E): ~3 fold
Cc1sc(N/N=C(\Cc2ccccc2)C(=O)O)nc1-c1ccccc1 [E-9, 2-[(5-Methyl-4-phenyl-thiazol-2-yl)-hydrazono]-3-phenyl-propionic acid]		350		> 300 µM	GI50 (A549 lung cancer cells; Table 1): 6 µM; GI50 (A549 lung cancer cells; Table 1, listed as E-4n): 6 µM
O=C(O)/C(Cc1ccccc1)=N/Nc1nc(-c2ccccc2)cs1 [E-4, 3-Phenyl-2-[(4-phenyl-thiazol-2-yl)-hydrazono]-propionic acid]		> 600		> 600 µM	GI50 (A549 lung cancer cells; Table 1): 14 µM and 17 µM; GI50 (A549 lung cancer cells; Table 1, listed as E-4c): 16 µM
O=C(O)/C(Cc1ccccc1)=N/Nc1nc(-c2ccccc2)c(-c2ccccc2)s1 [E-10, 2-[(4,5-Diphenyl-thiazol-2-yl)-hydrazono]-3-phenyl-propionic acid]		90		100 µM and 88 µM	GI50 (A549 lung cancer cells; Table 1): 1.5 µM; GI50 (A549 lung cancer cells; Table 1, listed as E-4o): 1.5 µM
O=C(O)/C(Cc1ccccc1)=N/Nc1nc(-c2ccc(Cl)c(Cl)c2)cs1 [E-3, 2-{[4-(3,4-Dichloro-phenyl)thiazol-2-yl]-hydrazono}-3-phenyl-propionic acid]		355		355 µM	GI50 (A549 lung cancer cells; Table 1): 6.5 µM; GI50 (A549 lung cancer cells; Table 1, listed as E-4s): 6.5 µM
O=C(Cc1ccccc1)NNc1nc(-c2ccccc2)cs1 [compound 12]			> 20	> 600 µM	
O=C(O)C(Cc1ccccc1[N+](=O)[O-])=NNc1nc(-c2ccc(N3CCCC3)cc2)cs1 [4i, 3-(2-Nitro-phenyl)-2-{[4-(4-pyrrolidin-1-yl-phenyl)-thiazol-2-yl]-hydrazono}-propionic acid]					binding affinity / potency in FP assay compared with hit compound 1 (eIF4E): significantly less active; GI50 (A549 and HT29 cell lines; [1]): > 24 µM
O=[N+]([O-])c1ccccc1CC(CO)NNc1nc(-c2ccc(Cl)c(Cl)c2)cs1 (stereo not drawn) [compound 14, 2-{N′-[4-(3,4-Dichloro-phenyl)-thiazol-2-yl]-hydrazino}-3-(2-nitro-phenyl)-propan-1-ol]			4	> 600 µM	
O=C(O)C(Cc1ccccc1[N+](=O)[O-])=NNc1nc(-c2ccc(/N=N/c3ccccc3)cc2)cs1 (mixture of isomers)	4	150			

Continued, in another order:

GI50 (A549 lung cancer cells; [2]) [µM]	IC50 (eIF4E/eIF4G interaction; Table 1 of b280) [µM]	GI50 (A549 lung cancer cells; [3]) [µM]	IC50 (eIF4E/eIF4G interaction; Table 1 of b347)	SMILES	also measured
> 10	> 600			O=C(O)/C(Cc1ccccc1)=N/Nc1ccc(-c2ccccc2)nn1 [Z-17, 3-Phenyl-2-[(6-phenyl-pyridazin-3-yl)-hydrazono]-propionic acid]	
	300			O=C(O)/C(Cc1ccccc1)=N/Nc1nc(-c2ccc(Cl)c(Cl)c2)cs1 [Z-3, 2-{[4-(3,4-Dichloro-phenyl)thiazol-2-yl]-hydrazono}-3-phenyl-propionic acid]	GI50 (A549 lung cancer cells; Table 1): 14 µM; GI50 (A549 lung cancer cells; Table 1, listed as Z-4s): 14 µM
1	50	1	50 µM	O=C(O)/C(Cc1ccccc1)=N/Nc1nc(-c2ccccc2)c(-c2ccccc2)s1 [Z-10, 2-[(4,5-Diphenyl-thiazol-2-yl)-hydrazono]-3-phenyl-propionic acid]	potency compared with its E isomer (eIF4E/eIF4G interaction; eIF4E/4G assay): two-fold more potent; potency compared with the initial hit (eIF4E/eIF4G interaction; eIF4E/4G assay): one order of magnitude more potent
4	240	4	240 µM	Cc1sc(N/N=C(\Cc2ccccc2)C(=O)O)nc1-c1ccccc1 [Z-9, 2-[(5-Methyl-4-phenyl-thiazol-2-yl)-hydrazono]-3-phenyl-propionic acid]	
> 20	> 600	> 20	> 600 µM	C/C(=N\Nc1nc(-c2ccccc2)cs1)C(=O)O [Z-7, 2-[(4-Phenyl-thiazol-2-yl)-hydrazono]-propionic acid]	
	> 600		> 600 µM	O=C(O)/C(Cc1ccccc1)=N/Nc1nc2ccccc2s1 [Z-11, 2-(Benzothiazol-2-yl-hydrazono)-3-phenyl-propionic acid]	GI50 (A549 lung cancer cells; Table 1): > 20 µM; GI50 (A549 lung cancer cells; Table 1, listed as Z-4p): > 20 µM
13	> 600	13	> 600 µM	O=C(O)/C(=N/Nc1nc(-c2ccccc2)cs1)c1ccccc1 [Z-6, Phenyl-[(4-phenyl-thiazol-2-yl)-hydrazono]-acetic acid]	
7	> 600	7	> 600 µM	C(/Cc1ccccc1)=N/Nc1nc(-c2ccccc2)cs1 [Z-5, N-Phenethylidene-N′-(4-phenyl-thiazol-2-yl)-hydrazine]	
17	240	> 20	240 µM	O=C(O)/C(Cc1ccccc1)=N/Nc1nc(-c2ccccc2)cs1 [Z-4, 3-Phenyl-2-[(4-phenyl-thiazol-2-yl)-hydrazono]-propionic acid]	
14	> 600	14	> 600 µM	OC/C(Cc1ccccc1)=N/Nc1nc(-c2ccccc2)cs1 [Z-15, 3-Phenyl-2-[(4-phenyl-thiazol-2-yl)-hydrazono]-propan-1-ol]	
